Laboratory results from patent US20230357239A1, “PYRIDO[2,3-D]PYRIMIDIN-4-AMINES AS SOS1 INHIBITORS” (Bayer Aktiengesellschaft, priority 2020, published 2023).

biological target: human SOS1 (SOS1) with human K-RasG12C (Homo sapiens (Human), UniProt Q07889); test: hK-RasG12C interaction assay with hSOS1 (HTRF); format: binding; details: GST-hK-RasG12C and His-hSOS1, 60 min incubation at 20° C, mean, read-out: K-RasG12C - SOS interaction assay IC50 - [mol/l] (mean)
Protocol: Biochemical Assay: hK-RasG12C Interaction Assay with hSOS1
This assay quantifies the equilibrium interaction of human SOS1 (SOS1) with human K-Ras^G12C (K-RasG12C). Detection of the interaction is achieved by measuring homogenous time-resolved fluorescence resonance energy transfer (HTRF) from antiGST-Europium (FRET donor) bound to GST-K-RasG12C to anti-6His-XL665 bound to His-tagged hSOS1 (FRET-acceptor).
The assay buffer containes 5 mM HEPES pH 7.4 (Applichem), 150 mM NaCl (Sigma), 10 mM EDTA (Promega), 1 mM DTT (Thermofisher), 0.05% BSA Fraction V, pH 7.0, (ICN Biomedicals), 0.0025% (v/v) Igepal (Sigma) and 100 mM KF (FLUKA).
Concentrations of protein batches used are optimized to be within the linear range of the HTRF signal. A Ras working solution is prepared in assay buffer containing typically 10 nM GST-hK-RasG12C and 2 nM antiGST-Eu(K) (Cisbio, France). A SOS1 working solution is prepared in assay buffer containing typically 20 nM His-hSOS1 and 10 nM anti-6His-XL665 (Cisbio, France). An inhibitor control solution is prepared in assay buffer containing 10 nM anti-6His-XL665 without SOS1.
Fifty nl of a 100-fold concentrated solution of the test compound in DMSO are transferred into a black microtiter test plate (384 or 1536, Greiner Bio-One, Germany).
For this, either a Hummingbird liquid handler (Digilab, MA, USA) or an Echo acoustic system (Labcyte, CA, USA) is used.
All steps of the assay are performed at 20° C. A volume of 2.5 μl of the Ras working solution is added to all wells of the test plate using a Multidrop dispenser (Thermo Labsystems). After 2 min preincubation, 2.5 μl of the SOS1 working solution are added to all wells except for those wells at the side of the test plate that are subsequently filled with 2.5 μl of the inhibitor control solution. After 60 min incubation the fluorescence is measured with a Pherastar (BMG, Germany) using the HTRF module (excitation 337 nm, emission 1: 620 nm, emission 2: 665 nm).
The ratiometric data (emission 2 divided by emission 1) are normalized using the controls (DMSO=0% inhibition, inhibition control wells with inhibitor control solution=100% inhibition). […] IC50 values are calculated by 4-Parameter fitting using a commercial software package (Genedata Screener, Switzerland).

Chain of human SOS1 (SOS1) with human K-RasG12C (Q07889 564-1049): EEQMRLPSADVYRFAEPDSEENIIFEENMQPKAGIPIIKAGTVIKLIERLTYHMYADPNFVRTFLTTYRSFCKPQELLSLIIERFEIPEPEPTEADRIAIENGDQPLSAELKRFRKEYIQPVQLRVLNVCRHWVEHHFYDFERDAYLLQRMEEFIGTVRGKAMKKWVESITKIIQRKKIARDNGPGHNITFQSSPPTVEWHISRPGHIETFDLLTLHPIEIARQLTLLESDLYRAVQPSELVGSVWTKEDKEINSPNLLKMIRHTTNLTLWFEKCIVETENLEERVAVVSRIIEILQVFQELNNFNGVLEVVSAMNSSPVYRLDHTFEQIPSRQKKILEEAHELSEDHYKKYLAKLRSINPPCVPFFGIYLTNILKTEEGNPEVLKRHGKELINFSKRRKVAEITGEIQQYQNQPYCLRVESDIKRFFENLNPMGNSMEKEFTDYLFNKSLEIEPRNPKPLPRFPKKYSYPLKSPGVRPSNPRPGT

| SMILES | IC50 [nM] |
| --- | --- |
| Cc1nc(N[C@H](C)c2cccc(C(F)(F)F)c2C)c2cc(N3CC4(CN(C(N)=O)C4)C3)cnc2n1 [Example 48, 6-[2-methyl-4-({(1R)-1-[2-methyl-3-(trifluoromethyl)phenyl]ethyl}amino)pyrido[2,3-d]pyrimidin-6-yl]-2,6-diazaspiro[3.3]heptane-2-carboxamide] | 9.95 |
| CC(=O)N1CC2(C1)CN(c1cc3c(N[C@H](C)c4cccc(C(F)(F)C(C)(C)O)c4F)nc(C)nc3nc1C)C2 [Example 60, 1-{6-[4-({(1R)-1-[3-(1,1-difluoro-2-hydroxy-2-methylpropyl)-2-fluorophenyl]ethyl}amino)-2,7-dimethylpyrido[2,3-d]pyrimidin-6-yl]-2,6-diazaspiro[3.3]heptan-2-yl}ethan-1-one] | 3410 |
| COc1cc2c(N[C@H](C)c3cccc(C(F)(F)F)c3C)nc(C)nc2nc1C [Example 38, 6-methoxy-2,7-dimethyl-N-{(1R)-1-[2-methyl-3-(trifluoromethyl)phenyl]ethyl}pyrido[2,3-d]pyrimidin-4-amine] | 46.3 |
| C[C@@H](Nc1ncnc2ncc(N3CCN(C)CC3)cc12)c1cccc(C(F)(F)F)c1 [Example 3, 6-(4-methylpiperazin-1-yl)—N-{(1R)-1-[3-(trifluoromethyl)phenyl]ethyl}pyrido[2,3-d]pyrimidin-4-amine] | 13.9 |
| CC(=O)N1CCC(c2cc3c(N[C@H](C)c4cccc(C(F)(F)C(C)(C)O)c4F)nc(C)nc3nc2C)=C(C)C1 [Example 62, 1-{4-[4-({(1R)-1-[3-(1,1-difluoro-2-hydroxy-2-methylpropyl)-2-fluorophenyl]ethyl}amino)-2,7-dimethylpyrido[2,3-d]pyrimidin-6-yl]-5-methyl-3,6-dihydropyridin-1(2H)-yl}ethan-1-one] | 14.5 |
| COc1nc2nc(C)nc(N[C@H](C)c3cccc(C(F)(F)F)c3C)c2cc1N1CC2(CN(C(C)=O)C2)C1 [Example 20, 1-{6-[7-methoxy-2-methyl-4-({(1R)-1-[2-methyl-3-(trifluoromethyl)phenyl]ethyl}amino)pyrido[2,3-d]pyrimidin-6-yl]-2,6-diazaspiro[3.3]heptan-2-yl}ethan-1-one] | 348 |
| CC(=O)N[C@@H]1CCN(c2cnc3ncnc(N[C@H](C)c4cccc(C(F)(F)F)c4)c3c2)C1 [Example 2, N-{(3R)-1-[4-({(1R)-1-[3-(trifluoromethyl)phenyl]ethyl}amino)pyrido[2,3-d]pyrimidin-6-yl]pyrrolidin-3-yl}acetamide] | 34 |
| CC(=O)N1CC2(C1)CN(c1cnc3nc(C)nc(N[C@H](C)c4cccc(C(F)F)c4F)c3c1)C2 [Example 29, 1-{6-[4-({(1R)-1-[3-(difluoromethyl)-2-fluorophenyl]ethyl}amino)-2-methylpyrido[2,3-d]pyrimidin-6-yl]-2,6-diazaspiro[3.3]heptan-2-yl}ethan-1-one] | 25.6 |
| CC(=O)N1CC=C(c2cc3c(N[C@H](C)c4cccc(C(F)F)c4F)nc(C)nc3nc2C)CC1 [Example 56, 1-{4-[4-({(1R)-1-[3-(difluoromethyl)-2-fluorophenyl]ethyl}amino)-2,7-dimethylpyrido[2,3-d]pyrimidin-6-yl]-3,6-dihydropyridin-1(2H)-yl}ethan-1-one] | 14.1 |
| CC(=O)N1CC2(C1)CN(c1cc3c(N[C@H](C)c4cccc(C(F)(F)F)c4C)nc(C)nc3nc1C)C2 [Example 63, 1-{6-[2,7-dimethyl-4-({(1R)-1-[2-methyl-3-(trifluoromethyl)phenyl]ethyl}amino)pyrido[2,3-d]pyrimidin-6-yl]-2,6-diazaspiro[3.3]heptan-2-yl}ethan-1-one] | 8.66 |
| Cc1nc(N[C@H](C)c2cccc(C(F)(F)F)c2C)c2cc(N3CCCS3(=O)=O)c(C)nc2n1 [Example 58, 2-[2,7-dimethyl-4-({(1R)-1-[2-methyl-3-(trifluoromethyl)phenyl]ethyl}amino)pyrido[2,3-d]pyrimidin-6-yl]-1 lambda^6,2-thiazolidine-1,1-dione] | 15.9 |

The next lines start with the values.

| IC50 [nM] | SMILES |
| --- | --- |
| 5.15 | CC(=O)N1C[C@@H]2C[C@H]1CN2c1cnc2nc(C)nc(N[C@H](C)c3cccc(C(F)(F)F)c3C)c2c1 [Example 14, 1-{(1S,4S)-5-[2-methyl-4-({(1R)-1-[2-methyl-3-(trifluoromethyl)phenyl]ethyl}amino)pyrido[2,3-d]pyrimidin-6-yl]-2,5-diazabicyclo[2.2.1]heptan-2-yl}ethan-1-one] |
| 3.56 | CC(=O)N1CCN(S(=O)(=O)c2cnc3nc(C)nc(N[C@H](C)c4cccc(C(F)(F)F)c4C)c3c2)CC1 [Example 17, 1-{4-[2-methyl-4-({(1R)-1-[2-methyl-3-(trifluoromethyl)phenyl]ethyl}amino)pyrido[2,3-d]pyrimidine-6-sulfonyl]piperazin-1-yl}ethan-1-one] |
| 8.47 | CC(=O)N1CC2(C1)CN(c1cc3c(N[C@H](C)c4cccc(C(F)F)c4F)nc(C)nc3nc1C)C2 [Example 37, 1-{6-[4-({(1R)-1-[3-(difluoromethyl)-2-fluorophenyl]ethyl}amino)-2,7-dimethylpyrido[2,3-d]pyrimidin-6-yl]-2,6-diazaspiro[3.3]heptan-2-yl}ethan-1-one] |
| 2.93 | CC(=O)N1CCN(c2cc3c(N[C@H](C)c4cccc(C(F)(F)F)c4C)nc(C)nc3nc2C)C(=O)C1 [Example 68, 4-acetyl-1-[2,7-dimethyl-4-({(1R)-1-[2-methyl-3-(trifluoromethyl)phenyl]ethyl}amino)pyrido[2,3-d]pyrimidin-6-yl]piperazin-2-one] |
| 2.8 | CC(=O)N1CC2(C1)CN(c1cc3c(N[C@H](C)c4cccc(C(F)(F)CO)c4F)nc(C)nc3nc1C(F)(F)F)C2 [Example 24, 1-{6-[4-({(1R)-1-[3-(1,1-difluoro-2-hydroxyethyl)-2-fluorophenyl]ethyl}amino)-2-methyl-7-(trifluoromethyl)pyrido[2,3-d]pyrimidin-6-yl]-2,6-diazaspiro[3.3]heptan-2-yl}ethan-1-one] |
| 5.75 | CC(=O)N1CC=C(c2cnc3nc(C)nc(N[C@H](C)c4cccc(C(F)(F)F)c4C)c3c2)CC1 [Example 26, 1-{4-[2-methyl-4-({(1R)-1-[2-methyl-3-(trifluoromethyl)phenyl]ethyl}amino)pyrido[2,3-d]pyrimidin-6-yl]-3,6-dihydropyridin-1(2H)-yl}ethan-1-one hydrogen] |
| 5.72 | CC(=O)N1CC=C(c2cc3c(N[C@H](C)c4cccc(C(F)(F)C(C)(C)O)c4F)nc(C)nc3nc2C)CC1 [Example 65, 1-{4-[4-({(1R)-1-[3-(1,1-difluoro-2-hydroxy-2-methylpropyl)-2-fluorophenyl]ethyl}amino)-2,7-dimethylpyrido[2,3-d]pyrimidin-6-yl]-3,6-dihydropyridin-1(2H)-yl}ethan-1-one] |
| 5.2 | CC(=O)N1CC=C(c2cnc3nc(C)nc(N[C@H](C)c4cccc(C(F)F)c4F)c3c2)CC1 [Example 43, 1-{4-[4-({(1R)-1-[3-(difluoromethyl)-2-fluorophenyl]ethyl}amino)-2-methylpyrido[2,3-d]pyrimidin-6-yl]-3,6-dihydropyridin-1(2H)-yl}ethan-1-one] |
| 3.31 | CC(=O)N1C2CC1CN(c1cnc3nc(C)nc(N[C@H](C)c4cccc(C(F)(F)C(C)(C)O)c4F)c3c1)C2 [Example 49, 1-{3-[4-({(1R)-1-[3-(1,1-difluoro-2-hydroxy-2-methylpropyl)-2-fluorophenyl]ethyl}amino)-2-methylpyrido[2,3-d]pyrimidin-6-yl]-3,6-diazabicyclo[3.1.1]heptan-6-yl}ethan-1-one] |
| 7.23 | Cc1nc(N[C@H](C)c2cccc(C(F)(F)C(C)(C)O)c2F)c2cc(N3CCCS3(=O)=O)c(C)nc2n1 [Example 59, 2-[4-({(1R)-1-[3-(1,1-difluoro-2-hydroxy-2-methylpropyl)-2-fluorophenyl]ethyl}amino)-2,7-dimethylpyrido[2,3-d]pyrimidin-6-yl]-1 lambda^6,2-thiazolidine-1,1-dione] |
| 4.24 | CC(=O)N1CC=C(c2cnc3ncnc(N[C@H](C)c4cccc(C(F)(F)F)c4)c3c2)CC1 [Example 5, 1-{4-[4-({(1R)-1-[3-(trifluoromethyl)phenyl]ethyl}amino)pyrido[2,3-d]pyrimidin-6-yl]-3,6-dihydropyridin-1(2H)-yl}ethan-1-one] |
| 4.46 | CC(=O)N[C@@H]1CCN(c2cnc3nc(C)nc(N[C@H](C)c4cccc(C(F)(F)C(C)(C)O)c4F)c3c2)C1 [Example 55, N-{(3R)-1-[4-({(1R)-1-[3-(1,1-difluoro-2-hydroxy-2-methylpropyl)-2-fluorophenyl]ethyl}amino)-2-methylpyrido[2,3-d]pyrimidin-6-yl]pyrrolidin-3-yl}acetamide] |
